From paper PMC3971757 (Journal of Natural Products, 2013)

Assays:
[1] = biological target: NA of influenza virus A HK/68 (Influenza A virus, UniProt Q91MA2); assay: biochemical; parameters: species or system influenza A virus H3N2 (A/HongKong/68)
[2] = biological target: NA of influenza virus A PR/8/34 (Influenza A virus, UniProt P03468); assay: biochemical; parameters: species or system influenza A virus H1N1 (A/PR/8/34); conditions: 50% NA inhibitory concentration against influenza virus A PR/8/34
Chain of NA of influenza virus A PR/8/34 (P03468 whole entry, looked up): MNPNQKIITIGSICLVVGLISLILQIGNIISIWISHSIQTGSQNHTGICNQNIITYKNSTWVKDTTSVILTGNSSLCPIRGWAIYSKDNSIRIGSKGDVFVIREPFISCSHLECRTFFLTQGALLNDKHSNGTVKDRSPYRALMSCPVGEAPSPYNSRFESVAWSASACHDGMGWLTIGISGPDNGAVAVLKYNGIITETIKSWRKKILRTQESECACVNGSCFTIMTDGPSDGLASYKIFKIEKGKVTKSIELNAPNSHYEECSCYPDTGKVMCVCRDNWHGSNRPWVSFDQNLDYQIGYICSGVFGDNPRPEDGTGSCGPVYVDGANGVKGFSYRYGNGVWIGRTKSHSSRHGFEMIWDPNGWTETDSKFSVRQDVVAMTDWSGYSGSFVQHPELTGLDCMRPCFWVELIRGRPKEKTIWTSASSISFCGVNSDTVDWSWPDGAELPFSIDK

[3] = system: NA of influenza virus A/Jinan/15/90 (H3N2); conditions: FL-based NA inhibition assay; cited from earlier work
[4] = system: NA of influenza virus B/Jiangsu/10/2003; conditions: FL-based NA inhibition assay; cited from earlier work
[5] = system: NA of influenza virus A/PR/8/34 (H1N1); conditions: FL-based NA inhibition assay; cited from earlier work
NA of PR/8/34 = conditions: read-out: IC50 NA inhibition (PR/8/34); earlier study; cited from earlier work

Chain of NA of influenza virus A HK/68 (Q91MA2 whole entry, looked up): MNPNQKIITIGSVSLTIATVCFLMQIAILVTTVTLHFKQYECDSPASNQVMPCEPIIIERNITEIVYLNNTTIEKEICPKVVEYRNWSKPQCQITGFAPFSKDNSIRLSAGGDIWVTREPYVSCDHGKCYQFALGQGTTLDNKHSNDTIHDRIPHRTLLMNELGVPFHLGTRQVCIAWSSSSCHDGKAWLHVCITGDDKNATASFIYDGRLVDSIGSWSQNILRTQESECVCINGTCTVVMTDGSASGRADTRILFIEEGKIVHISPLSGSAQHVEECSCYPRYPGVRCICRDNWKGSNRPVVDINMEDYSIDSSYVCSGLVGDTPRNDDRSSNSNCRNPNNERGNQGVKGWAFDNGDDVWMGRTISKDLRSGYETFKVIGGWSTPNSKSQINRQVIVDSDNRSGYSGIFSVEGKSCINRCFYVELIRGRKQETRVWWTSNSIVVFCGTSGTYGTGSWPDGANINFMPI

Row | Structure (SMILES) | IC50 [1] | IC50 [2] | further results
1 | CC(C)=CCc1cc([C@@H]2CC(=O)c3ccc(O)c(CC=C(C)C)c3O2)ccc1O [Compound 4, glabrol] | 3.06 ± 1.21 µM | 0.51 µM | –
2 | O=C1C[C@@H](c2ccc(O)cc2)Oc2cc(O)ccc21 [Compound 10, liquiritigenin] | – | 2.07 ± 0.37 µM | –
3 | CC(C)=CCc1c(O)ccc(C(=O)/C=C/c2cc(O)c3c(c2)C=CC(C)(C)O3)c1O [Compound 1, (E)-1-[2,4-dihydroxy-3-(3-methyl-2-butenyl)phenyl]-3-(8-hydroxy-2,2-dimethyl-2H-1-benzopyran-6-yl)-2-propen-1-one] | – | 0.25 µM | –
4 | CC1(C)C=Cc2c(ccc(-c3coc4cc(O)ccc4c3=O)c2O)O1 [Compound 5, glabrone] | 5.34 ± 2.29 µM | 0.4 ± 0.17 µM | –
5 | O=C1C[C@@H](c2ccc(O)cc2)Oc2cc(O[C@@H]3O[C@H](CO)[C@@H](O)[C@H](O)[C@H]3O)cc(O)c21 [Compound 12, prunin] | – | 3 ± 0.46 µM | –
6 | O=C1C[C@@H](c2ccc(O[C@@H]3O[C@H](CO)[C@@H](O)[C@H](O)[C@H]3O)cc2)Oc2cc(O)ccc21 [Compound 11, liquiritin] | – | 83.1 ± 17.8 µM | activity against the NA of influenza virus A/Jinan/15/90 (H3N2) [3]: weak activity; activity against the NA of influenza virus B/Jiangsu/10/2003 [4]: weak activity; activity against the NA of influenza virus A/PR/8/34 (H1N1) [5]: weak activity
7 | C=CCc1ccc(O)c(-c2ccc(O)c(CC=C)c2)c1 [Honokiol, honokiol, reference compound] | – | 3.01 µM | –
8 | COc1ccc(-c2coc3cc(O)ccc3c2=O)cc1 [Compound 3, biochanin B] | – | 1.37 ± 0.22 µM | activity against the NA of influenza virus A/Jinan/15/90 (H3N2) [3]: weak activity; activity against the NA of influenza virus B/Jiangsu/10/2003 [4]: weak activity; activity against the NA of influenza virus A/PR/8/34 (H1N1) [5]: weak activity
9 | O=C(CCc1ccccc1)C[C@@H]1C[C@@H](c2ccccc2)c2c(cc(/C=C/c3ccccc3)oc2=O)O1 [Katsumadain A, katsumadain A] | – | – | IC50 (NA of PR/8/34): 1.05 µM
10 | CC1(C)C=Cc2c(ccc([C@@H]3COc4c(ccc5c4C=CC(C)(C)O5)C3)c2O)O1 [Compound 6, hispaglabridin B] | 2.85 ± 1.58 µM | 1.11 ± 0.53 µM | –
11 | CC1(C)C=Cc2c(ccc3c2OCC(O)C3)O1 (stereo not drawn) [Compound 2, 3,4-dihydro-8,8-dimethyl-2H,8H-benzo[1,2-b:3,4-b′]dipyran-3-ol] | 12.4 ± 4.14 µM | 6.47 ± 2.59 µM | –
